pKd: −log10 of the molar value.
target: NP (Influenza A virus, UniProt P15682); experiment: biochemical; type: binding
Sequence (P15682 whole entry): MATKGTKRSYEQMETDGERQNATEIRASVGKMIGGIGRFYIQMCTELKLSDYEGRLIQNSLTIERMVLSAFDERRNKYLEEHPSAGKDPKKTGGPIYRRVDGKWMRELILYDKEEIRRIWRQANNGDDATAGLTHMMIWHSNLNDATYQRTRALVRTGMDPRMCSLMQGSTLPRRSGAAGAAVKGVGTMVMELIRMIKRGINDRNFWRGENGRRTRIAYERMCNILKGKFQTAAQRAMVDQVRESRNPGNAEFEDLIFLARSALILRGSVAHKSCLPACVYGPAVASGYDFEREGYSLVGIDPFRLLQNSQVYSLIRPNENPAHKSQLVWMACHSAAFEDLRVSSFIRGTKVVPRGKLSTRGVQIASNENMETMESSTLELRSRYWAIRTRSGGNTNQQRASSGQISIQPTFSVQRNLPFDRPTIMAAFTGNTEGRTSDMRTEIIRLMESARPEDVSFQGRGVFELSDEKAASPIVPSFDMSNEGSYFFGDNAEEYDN

Structure (SMILES) | pKd | binding affinity for NP relative to nucleozin
COc1ccc(C2CC(c3c(-c4ccccc4)c4cc(Cl)ccc4[nH]c3=O)=NN2C(=O)CCC(=O)O)cc1 (centres unmarked) [Compound 8] | 4.11 | higher binding affinity for NP than nucleozin
Cc1onc(-c2ccccc2)c1C(=O)N1CCN(c2ccc([N+](=O)[O-])cc2Cl)CC1 [nucleozin, reference compound] | 5.01 | 
O=C(O)CCCC(=O)Nc1nc2n(n1)[C@H](c1ccccc1)C=C(c1ccc(Cl)cc1)N2 [Compound 14] | 4.16 | higher binding affinity for NP than nucleozin
O=C(O)CCC(=O)Nc1nc2n(n1)C(c1ccc(Cl)cc1)C=C(c1ccc(Cl)cc1)N2 (centres unmarked) [Compound 13] | 4.42 | higher binding affinity for NP than nucleozin
O=C(O)CCC(=O)N1N=C(c2c(O)nc3ccc(Br)cc3c2-c2ccccc2)CC1c1ccco1 (centres unmarked) [Compound 1] | 3.82 | higher binding affinity for NP than nucleozin
Cc1ccc([C@@H]2C=C(c3ccc(Cl)cc3)Nc3nc(NC(=O)CCCC(=O)O)nn32)cc1 [Compound 4] |  | higher binding affinity for NP than nucleozin
COc1ccc([C@H]2CC(c3c(-c4ccccc4)c4cc(Br)ccc4[nH]c3=O)=NN2C(=O)CCC(=O)O)cc1 [Compound 3] | 3.68 | higher binding affinity for NP than nucleozin
O=C(O)CCC(=O)N1N=C(c2c(-c3ccccc3)c3cc(Br)ccc3[nH]c2=O)C[C@@H]1c1ccc([N+](=O)[O-])cc1 [Compound 9] |  | higher binding affinity for NP than nucleozin
COc1ccc([C@@H]2C=C(c3ccc(Cl)cc3)Nc3nc(NC(=O)CCCC(=O)O)nn32)cc1 [Compound 12] |  | higher binding affinity for NP than nucleozin
